Reference: patent US11767310B2, “Nicotinamide RIPK1 inhibitors” (AbbVie Inc., priority 2021, dated 2023)
Like-named read-outs stand apart in the source and are kept apart here.

Assays:
Experiment in all cases: Kinase binding screen
Conditions in all cases: read-out: Percent Control at 100 nM Compound Concentration
[1] = target: LKB1 (Homo sapiens (Human), UniProt Q15831)
[2] = target: MLK3 (Homo sapiens (Human), UniProt Q16584)
[3] = target: FGFR2 (Homo sapiens (Human), UniProt P21802)
[4] = target: KIT(V559D) (Homo sapiens (Human), UniProt P10721, V559D)
[5] = target: HCK (Homo sapiens (Human), UniProt P08631)
[6] = target: GCN2(Kin.Dom.2,S808G) (Homo sapiens (Human), UniProt Q9P2K8, S808G)
Chain of GCN2(Kin.Dom.2,S808G) (Q9P2K8 590-1001 S808G): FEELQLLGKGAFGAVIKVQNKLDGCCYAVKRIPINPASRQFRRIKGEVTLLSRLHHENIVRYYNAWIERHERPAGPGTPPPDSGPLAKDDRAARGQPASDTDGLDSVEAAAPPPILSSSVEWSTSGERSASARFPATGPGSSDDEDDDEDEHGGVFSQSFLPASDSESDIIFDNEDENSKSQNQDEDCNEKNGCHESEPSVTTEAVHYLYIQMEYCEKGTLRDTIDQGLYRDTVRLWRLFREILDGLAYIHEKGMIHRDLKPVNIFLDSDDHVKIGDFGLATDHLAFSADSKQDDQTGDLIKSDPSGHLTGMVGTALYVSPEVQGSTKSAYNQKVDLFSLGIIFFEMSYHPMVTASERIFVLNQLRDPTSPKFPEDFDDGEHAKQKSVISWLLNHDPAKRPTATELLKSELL

[7] = target: EGFR (Homo sapiens (Human), UniProt P00533)
Chain of EGFR (P00533 25-1210): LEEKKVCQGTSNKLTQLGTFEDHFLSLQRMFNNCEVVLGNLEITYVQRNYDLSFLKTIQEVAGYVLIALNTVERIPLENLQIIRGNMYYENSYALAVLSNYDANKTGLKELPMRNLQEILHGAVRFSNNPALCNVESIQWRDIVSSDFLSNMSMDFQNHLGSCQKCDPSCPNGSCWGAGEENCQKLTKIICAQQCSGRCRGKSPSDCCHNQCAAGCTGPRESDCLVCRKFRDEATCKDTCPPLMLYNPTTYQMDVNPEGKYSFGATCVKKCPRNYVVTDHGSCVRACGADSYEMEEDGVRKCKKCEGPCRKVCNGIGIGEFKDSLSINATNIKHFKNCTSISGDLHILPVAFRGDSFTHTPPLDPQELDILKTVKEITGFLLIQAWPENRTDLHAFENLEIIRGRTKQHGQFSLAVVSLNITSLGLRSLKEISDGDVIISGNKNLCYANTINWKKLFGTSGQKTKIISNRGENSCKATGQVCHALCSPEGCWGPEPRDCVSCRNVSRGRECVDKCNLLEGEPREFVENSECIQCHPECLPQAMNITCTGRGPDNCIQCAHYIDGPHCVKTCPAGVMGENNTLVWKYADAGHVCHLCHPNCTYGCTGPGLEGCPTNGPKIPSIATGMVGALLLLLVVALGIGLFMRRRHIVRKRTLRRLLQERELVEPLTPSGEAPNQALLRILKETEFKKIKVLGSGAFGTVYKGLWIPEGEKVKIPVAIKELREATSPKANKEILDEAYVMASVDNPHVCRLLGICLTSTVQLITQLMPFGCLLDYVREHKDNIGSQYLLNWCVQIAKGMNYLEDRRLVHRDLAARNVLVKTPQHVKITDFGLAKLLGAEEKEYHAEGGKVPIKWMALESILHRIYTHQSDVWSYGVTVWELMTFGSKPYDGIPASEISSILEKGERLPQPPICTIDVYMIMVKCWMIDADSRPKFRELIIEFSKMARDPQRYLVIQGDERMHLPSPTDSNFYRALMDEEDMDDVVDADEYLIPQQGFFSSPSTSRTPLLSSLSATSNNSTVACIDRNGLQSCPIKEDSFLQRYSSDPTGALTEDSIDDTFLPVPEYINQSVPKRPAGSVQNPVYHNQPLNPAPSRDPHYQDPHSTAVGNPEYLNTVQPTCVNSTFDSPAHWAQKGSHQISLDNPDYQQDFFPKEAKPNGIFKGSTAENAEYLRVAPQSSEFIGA

[8] = target: SRPK1 (Homo sapiens (Human), UniProt Q96SB4)
[9] = target: ABL1(F317I)-phosphorylated (Homo sapiens (Human), UniProt P00519, F317I)
[10] = target: BMPR1A (Homo sapiens (Human), UniProt P36894)
Chain of BMPR1A (P36894 24-532): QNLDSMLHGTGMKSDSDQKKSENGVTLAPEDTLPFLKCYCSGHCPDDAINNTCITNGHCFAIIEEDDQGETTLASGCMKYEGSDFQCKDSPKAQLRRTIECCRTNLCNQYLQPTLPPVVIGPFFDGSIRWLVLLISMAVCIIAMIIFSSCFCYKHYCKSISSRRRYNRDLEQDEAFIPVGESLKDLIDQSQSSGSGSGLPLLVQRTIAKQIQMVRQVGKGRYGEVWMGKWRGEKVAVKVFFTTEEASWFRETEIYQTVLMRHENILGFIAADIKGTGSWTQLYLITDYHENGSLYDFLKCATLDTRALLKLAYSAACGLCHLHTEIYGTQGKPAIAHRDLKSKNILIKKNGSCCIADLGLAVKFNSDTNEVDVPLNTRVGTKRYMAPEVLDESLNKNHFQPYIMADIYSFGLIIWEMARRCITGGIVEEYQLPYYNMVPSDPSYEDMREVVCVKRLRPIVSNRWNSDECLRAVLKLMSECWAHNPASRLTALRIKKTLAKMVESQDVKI

[11] = target: SIK (Homo sapiens (Human), UniProt P57059)
Chain of SIK (P57059 whole entry): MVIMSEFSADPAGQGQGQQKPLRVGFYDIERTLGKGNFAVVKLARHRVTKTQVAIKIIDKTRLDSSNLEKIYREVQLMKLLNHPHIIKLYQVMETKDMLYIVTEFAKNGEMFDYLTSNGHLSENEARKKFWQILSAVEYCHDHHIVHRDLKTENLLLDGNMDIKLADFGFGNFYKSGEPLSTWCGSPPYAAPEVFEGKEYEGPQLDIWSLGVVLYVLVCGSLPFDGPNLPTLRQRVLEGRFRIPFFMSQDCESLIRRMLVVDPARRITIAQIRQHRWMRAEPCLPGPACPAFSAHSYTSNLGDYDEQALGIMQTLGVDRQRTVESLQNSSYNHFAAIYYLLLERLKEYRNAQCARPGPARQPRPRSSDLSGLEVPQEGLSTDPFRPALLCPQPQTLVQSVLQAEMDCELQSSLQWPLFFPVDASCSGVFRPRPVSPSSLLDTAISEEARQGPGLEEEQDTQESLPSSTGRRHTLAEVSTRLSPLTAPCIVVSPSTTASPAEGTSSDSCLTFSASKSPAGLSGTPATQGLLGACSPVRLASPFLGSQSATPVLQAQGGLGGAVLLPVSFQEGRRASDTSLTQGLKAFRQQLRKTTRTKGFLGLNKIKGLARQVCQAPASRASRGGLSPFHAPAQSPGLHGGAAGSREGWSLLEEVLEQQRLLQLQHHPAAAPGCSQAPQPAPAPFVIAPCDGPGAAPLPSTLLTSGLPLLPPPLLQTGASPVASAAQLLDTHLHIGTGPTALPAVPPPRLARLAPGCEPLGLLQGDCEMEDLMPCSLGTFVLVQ

[12] = target: BMX (Homo sapiens (Human), UniProt P51813)
[13] = target: IRAK3 (Homo sapiens (Human), UniProt Q9Y616)
[14] = target: PKMYT1 (Homo sapiens (Human), UniProt Q99640)
[15] = target: MRCKA (Homo sapiens (Human), UniProt Q5VT25)
[16] = target: AKT1 (Homo sapiens (Human), UniProt P31749)
[17] = target: CTK (Homo sapiens (Human), UniProt P42679)
Chain of CTK (P42679 whole entry): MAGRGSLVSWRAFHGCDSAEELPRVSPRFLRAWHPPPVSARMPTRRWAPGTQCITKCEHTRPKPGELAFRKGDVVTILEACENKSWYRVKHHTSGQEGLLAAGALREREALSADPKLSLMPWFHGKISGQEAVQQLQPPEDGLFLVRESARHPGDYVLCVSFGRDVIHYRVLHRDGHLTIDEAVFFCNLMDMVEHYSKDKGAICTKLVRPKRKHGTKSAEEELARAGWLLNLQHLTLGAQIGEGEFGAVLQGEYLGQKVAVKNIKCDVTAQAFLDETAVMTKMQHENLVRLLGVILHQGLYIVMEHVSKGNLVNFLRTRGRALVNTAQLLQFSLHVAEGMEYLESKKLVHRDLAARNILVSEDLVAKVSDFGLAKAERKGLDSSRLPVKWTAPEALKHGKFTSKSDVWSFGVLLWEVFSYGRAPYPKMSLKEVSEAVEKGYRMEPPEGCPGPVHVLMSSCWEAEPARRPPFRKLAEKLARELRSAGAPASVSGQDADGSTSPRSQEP

[18] = target: PIP5K1A (Homo sapiens (Human), UniProt Q99755)
[19] = target: CHEK1 (Homo sapiens (Human), UniProt O14757)
[20] = target: WEE1 (Homo sapiens (Human), UniProt P30291)
[21] = target: TAOK3 (Homo sapiens (Human), UniProt Q9H2K8)
[22] = target: TSSK3 (Homo sapiens (Human), UniProt Q96PN8)
[23] = target: CDK7 (Homo sapiens (Human), UniProt P50613)
Chain of CDK7 (P50613 whole entry): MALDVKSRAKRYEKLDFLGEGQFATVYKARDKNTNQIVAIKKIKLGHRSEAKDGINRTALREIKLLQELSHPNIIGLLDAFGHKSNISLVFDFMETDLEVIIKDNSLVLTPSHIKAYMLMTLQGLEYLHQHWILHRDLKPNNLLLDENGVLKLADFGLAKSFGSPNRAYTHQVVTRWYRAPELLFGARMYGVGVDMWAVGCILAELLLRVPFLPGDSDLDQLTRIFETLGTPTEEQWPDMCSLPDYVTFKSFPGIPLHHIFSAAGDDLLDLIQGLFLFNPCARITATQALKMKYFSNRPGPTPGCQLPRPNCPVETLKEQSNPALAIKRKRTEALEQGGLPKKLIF

[24] = target: STK39 (Homo sapiens (Human), UniProt Q9UEW8)
[25] = target: IKK-epsilon (Homo sapiens (Human), UniProt Q14164)
[26] = target: PIP5K2C (Homo sapiens (Human), UniProt Q8TBX8)
[27] = target: EPHA7 (Homo sapiens (Human), UniProt Q15375)
[28] = target: EGFR(L747-T751del,Sins) (Homo sapiens (Human), UniProt P00533, DEL747-751/INS746S)
[29] = target: TRKA (Homo sapiens (Human), UniProt P04629)
Chain of TRKA (P04629 33-796): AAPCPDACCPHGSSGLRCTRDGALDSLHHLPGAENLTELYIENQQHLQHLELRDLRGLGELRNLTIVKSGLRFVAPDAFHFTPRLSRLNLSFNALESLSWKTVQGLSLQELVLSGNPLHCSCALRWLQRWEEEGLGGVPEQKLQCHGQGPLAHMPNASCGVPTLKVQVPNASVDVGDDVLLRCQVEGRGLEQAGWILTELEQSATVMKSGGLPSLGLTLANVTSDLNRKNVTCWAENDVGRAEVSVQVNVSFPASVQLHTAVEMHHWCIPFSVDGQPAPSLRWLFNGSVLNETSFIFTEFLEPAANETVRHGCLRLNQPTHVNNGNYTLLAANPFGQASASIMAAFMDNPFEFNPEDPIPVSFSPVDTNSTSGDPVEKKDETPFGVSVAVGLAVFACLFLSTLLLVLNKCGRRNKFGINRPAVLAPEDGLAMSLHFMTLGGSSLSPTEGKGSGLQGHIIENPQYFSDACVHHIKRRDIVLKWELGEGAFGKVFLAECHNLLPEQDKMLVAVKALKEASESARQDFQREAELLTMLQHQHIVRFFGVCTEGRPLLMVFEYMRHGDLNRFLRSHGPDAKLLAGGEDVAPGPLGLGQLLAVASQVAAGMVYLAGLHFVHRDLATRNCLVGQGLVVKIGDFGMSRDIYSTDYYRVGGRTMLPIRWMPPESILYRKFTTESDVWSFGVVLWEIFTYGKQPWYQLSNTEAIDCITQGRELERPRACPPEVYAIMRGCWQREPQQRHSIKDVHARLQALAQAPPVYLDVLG

Chain of LKB1 (Q15831 whole entry): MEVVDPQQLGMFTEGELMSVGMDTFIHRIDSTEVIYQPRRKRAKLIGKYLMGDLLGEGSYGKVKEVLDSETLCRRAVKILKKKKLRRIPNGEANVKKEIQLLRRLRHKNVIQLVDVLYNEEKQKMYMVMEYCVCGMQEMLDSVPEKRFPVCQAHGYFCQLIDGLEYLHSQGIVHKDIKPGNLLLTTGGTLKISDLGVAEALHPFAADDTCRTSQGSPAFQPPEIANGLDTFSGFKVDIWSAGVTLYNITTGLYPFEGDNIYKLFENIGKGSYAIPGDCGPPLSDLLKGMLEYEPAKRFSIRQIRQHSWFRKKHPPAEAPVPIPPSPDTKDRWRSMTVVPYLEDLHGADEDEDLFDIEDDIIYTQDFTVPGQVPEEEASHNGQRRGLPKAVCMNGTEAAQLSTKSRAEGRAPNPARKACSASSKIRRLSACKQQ

CN(C[C@@H](O)Cc1ccccc1)C(=O)c1cncc(C#Cc2cnn(C(F)F)c2)c1 [Example 2, (S)-5-((1-(difluoromethyl)-1H-pyrazol-4-yl)ethynyl)-N-(2-hydroxy-3-phenylpropyl)-N-methylnicotinamide]
remaining activity at 0.1 µM ([1]; LKB1): 70% | remaining activity at 0.1 µM ([2]; MLK3): 95% | remaining activity at 0.1 µM ([3]; FGFR2): 100% | remaining activity at 0.1 µM ([4]; KIT(V559D)): 100% | remaining activity at 0.1 µM ([5]; HCK): 100% | remaining activity at 0.1 µM ([6]; GCN2(Kin.Dom.2,S808G)): 95% | remaining activity at 0.1 µM ([7]; EGFR): 93% | remaining activity at 0.1 µM ([8]; SRPK1): 100% | remaining activity at 0.1 µM ([9]; ABL1(F317I)-phosphorylated): 100% | remaining activity at 0.1 µM ([10]; BMPR1A): 86% | remaining activity at 0.1 µM ([11]; SIK): 100% | remaining activity at 0.1 µM ([12]; BMX): 100% | remaining activity at 0.1 µM ([13]; IRAK3): 96% | remaining activity at 0.1 µM ([14]; PKMYT1): 99% | remaining activity at 0.1 µM ([15]; MRCKA): 100% | remaining activity at 0.1 µM ([16]; AKT1): 100% | remaining activity at 0.1 µM ([17]; CTK): 100% | remaining activity at 0.1 µM ([18]; PIP5K1A): 100% | remaining activity at 0.1 µM ([19]; CHEK1): 100% | remaining activity at 0.1 µM ([20]; WEE1): 92% | remaining activity at 0.1 µM ([21]; TAOK3): 92% | remaining activity at 0.1 µM ([22]; TSSK3): 82% | remaining activity at 0.1 µM ([23]; CDK7): 100% | remaining activity at 0.1 µM ([24]; STK39): 100% | remaining activity at 0.1 µM ([25]; IKK-epsilon): 100% | remaining activity at 0.1 µM ([26]; PIP5K2C): 63% | remaining activity at 0.1 µM ([27]; EPHA7): 97% | remaining activity at 0.1 µM ([28]; EGFR(L747-T751del,Sins)): 100% | remaining activity at 0.1 µM ([29]; TRKA): 100%

CN(C[C@H](Cc1ccccc1)OP(=O)(O)O)C(=O)c1cncc(C#Cc2cnn(C(F)F)c2)c1 [Example 19, (S)-1-(5-((1-(difluoromethyl)-1H-pyrazol-4-yl)ethynyl)-N-methylnicotinamido)-3-phenylpropan-2-yl dihydrogen phosphate]
remaining activity at 0.1 µM [1]: 79% | remaining activity at 0.1 µM [2]: 89% | remaining activity at 0.1 µM [3]: 100% | remaining activity at 0.1 µM [4]: 96% | remaining activity at 0.1 µM [5]: 100% | remaining activity at 0.1 µM [6]: 97% | remaining activity at 0.1 µM [7]: 100% | remaining activity at 0.1 µM [8]: 100% | remaining activity at 0.1 µM [9]: 98% | remaining activity at 0.1 µM [10]: 94% | remaining activity at 0.1 µM [11]: 100% | remaining activity at 0.1 µM [12]: 100% | remaining activity at 0.1 µM [13]: 92% | remaining activity at 0.1 µM [14]: 100% | remaining activity at 0.1 µM [15]: 100% | remaining activity at 0.1 µM [16]: 100% | remaining activity at 0.1 µM [17]: 90% | remaining activity at 0.1 µM [18]: 92% | remaining activity at 0.1 µM [19]: 100% | remaining activity at 0.1 µM [20]: 100% | remaining activity at 0.1 µM [21]: 85% | remaining activity at 0.1 µM [22]: 100% | remaining activity at 0.1 µM [23]: 100% | remaining activity at 0.1 µM [24]: 100% | remaining activity at 0.1 µM [25]: 94% | remaining activity at 0.1 µM [26]: 74% | remaining activity at 0.1 µM [27]: 96% | remaining activity at 0.1 µM [28]: 79% | remaining activity at 0.1 µM [29]: 81%
